Test system: bacterial colonies
Experiment: Validation of the rapid test strip on bacterial colonies sensitive or resistant to third-generation cephalosporins (Table 12)
Type: biochemical
Parameters: key: A signal on the TL is considered as “P”; An absence of signal on the TL is defined as “N”
Protocol: In order to validate the test strip on bacterial colonies for its clinical use, […].
In order to carry out these tests, all of the solutions below have been prepared in the buffer strip having, for composition: 0.1 M pH 8 Tris buffer/HCL+0.15 M NaCl+0.5% Tween 20+1% chaps+0.01% sodium azide. […] The tracer is in dried format on the CP. […] A CL was produced. It consists of anti-tracer antibodies. The migration is carried out in a plastic cassette.
A bacterial colony was sampled from an URI-4 agar with a 1 μl ose, then deposited in the previously prepared Eppendorf tube. The tube was vortexed for five seconds, then incubated for 30 minutes at ambient temperature. Once the incubation was finished, 100 μl was sampled and deposited on the test strip. The reading is carried out after 10 minutes migration. A signal on the TL is considered as “P”. An absence of signal on the TL is defined as “N”.

CO/N=C(\C(=O)N[C@@H]1C(=O)N2C(C(=O)O)=C(COC(C)=O)CS[C@H]12)c1csc(N)n1 [non-hydrolysed cefotaxime, cefotaxime]
results of the test (C. freundii, CMY-135 + MOX-9 + OXA-372 + OXA-10, isolate number 1, strains capable of hydrolysing cefotaxime): P | results of the test (C. freundii, CMY-150 + LMB-1, isolate number 1, strains capable of hydrolysing cefotaxime): P | results of the test (C. freundii, CTX-M + VIM + OXA-48, isolate number 1, strains capable of hydrolysing cefotaxime): P | results of the test (C. freundii, CTX-M-1, isolate number 1, strains capable of hydrolysing cefotaxime): P | results of the test (C. freundii, CTX-M-15 + TEM-1 + CMY-48 + OXA-48 like, isolate number 1, strains capable of hydrolysing cefotaxime): P | results of the test (C. freundii, CTX-M-15, isolate number 1, strains capable of hydrolysing cefotaxime): P | results of the test (C. freundii, N/A, isolate number 1, strains not capable of hydrolysing cefotaxime): N | results of the test (C. freundii, SHV-12 + TEM-1 + OXA-48, isolate number 1, strains capable of hydrolysing cefotaxime): P | results of the test (C. freundii, SHV-12, isolate number 1, strains capable of hydrolysing cefotaxime): P | results of the test (C. freundii, TEM-1 + KPC-2, isolate number 1, strains capable of hydrolysing cefotaxime): P | results of the test (C. freundii, TEM-1 + VIM-2 + OXA-9 + OXA-10, isolate number 1, strains capable of hydrolysing cefotaxime): P | results of the test (C. freundii, TEM-1 + VIM-2, isolate number 1, strains capable of hydrolysing cefotaxime): P | results of the test (C. freundii, TEM-3 + Overexpressed AmpC, isolate number 2, strains capable of hydrolysing cefotaxime): P | results of the test (C. koserii, CTX-M-1, isolate number 1, strains capable of hydrolysing cefotaxime): P | results of the test (C. koserii, TEM-1 + OXA-48, isolate number 1, strains capable of hydrolysing cefotaxime): P | results of the test (E. asburiae, IMI-2, isolate number 2, strains not capable of hydrolysing cefotaxime): N | results of the test (E. asburiae, IMI-17, isolate number 1, strains not capable of hydrolysing cefotaxime): N | results of the test (E. cloacae, CTX-M-9, isolate number 1, strains capable of hydrolysing cefotaxime): P | results of the test (E. cloacae, FRI-1, isolate number 1, strains capable of hydrolysing cefotaxime): P | results of the test (E. cloacae, GES-6, isolate number 1, strains capable of hydrolysing cefotaxime): P | results of the test (E. cloacae, GIM-1, isolate number 1, strains capable of hydrolysing cefotaxime): P | results of the test (E. cloacae, IMI-1, isolate number 1, strains not capable of hydrolysing cefotaxime): N | results of the test (E. cloacae, IMI-3 + Overexpressed AmpC, isolate number 1, strains capable of hydrolysing cefotaxime): P | results of the test (E. cloacae, N/A, isolate number 2, strains not capable of hydrolysing cefotaxime): N | results of the test (E. cloacae, Overexpressed AmpC, isolate number 7, strains capable of hydrolysing cefotaxime): P | results of the test (E. cloacae, TEM-3, isolate number 1, strains capable of hydrolysing cefotaxime): P | results of the test (E. cloacae, TMB-1, isolate number 1, strains capable of hydrolysing cefotaxime): P | results of the test (E. coli, CTX-M + NDM-5 + OXA-181, isolate number 1, strains capable of hydrolysing cefotaxime): P | results of the test (E. coli, CTX-M + SHV + NDM-1 + OXA-48, isolate number 1, strains capable of hydrolysing cefotaxime): P | results of the test (E. coli, CTX-M-9 + TEM-1 + KPC-2, isolate number 1, strains capable of hydrolysing cefotaxime): P | results of the test (E. coli, CTX-M-15 + CMY-2 + OXA-204 + OXA-1, isolate number 1, strains capable of hydrolysing cefotaxime): P | results of the test (E. coli, CTX-M-15 + CMY-4 + OXA-204 + OXA-1, isolate number 1, strains capable of hydrolysing cefotaxime): P | results of the test (E. coli, CTX-M-15 + CMY-4 + OXA-204, isolate number 1, strains capable of hydrolysing cefotaxime): P | results of the test (E. coli, CTX-M-15 + CMY-6 + NDM-4, isolate number 1, strains capable of hydrolysing cefotaxime): P | results of the test (E. coli, CTX-M-15 + NDM-6 + OXA-1, isolate number 1, strains capable of hydrolysing cefotaxime): P | results of the test (E. coli, CTX-M-15 + OXA-232 + OXA-1, isolate number 1, strains capable of hydrolysing cefotaxime): P | results of the test (E. coli, CTX-M-15 + TEM-1 + CMY + NDM-1, isolate number 1, strains capable of hydrolysing cefotaxime): P | results of the test (E. coli, CTX-M-93, isolate number 1, strains not capable of hydrolysing cefotaxime): N | results of the test (E. coli, TEM-1 + CMY-16 + NDM-1 + OXA-1 + OXA-10, isolate number 1, strains capable of hydrolysing cefotaxime): P | results of the test (E. coli, TEM-1 + NDM-9 + OXA-1, isolate number 1, strains capable of hydrolysing cefotaxime): P | results of the test (K. oxytoca, CTX-M-15, isolate number 2, strains capable of hydrolysing cefotaxime): P | results of the test (K. oxytoca, DHA-1 + SHV-75, isolate number 1, strains capable of hydrolysing cefotaxime): P | results of the test (K. pneumoniae, CMY-4 + OXA-204, isolate number 1, strains capable of hydrolysing cefotaxime): P | results of the test (K. pneumoniae, CTX-M + KPC-3, isolate number 1, strains capable of hydrolysing cefotaxime): P | results of the test (K. pneumoniae, CTX-M + MCR-1, isolate number 2, strains capable of hydrolysing cefotaxime): P | results of the test (K. pneumoniae, CTX-M + NDM-1 + OXA-232, isolate number 1, strains capable of hydrolysing cefotaxime): P | results of the test (K. pneumoniae, CTX-M + NDM-4 + KPC-2, isolate number 1, strains capable of hydrolysing cefotaxime): P | results of the test (K. pneumoniae, CTX-M + NDM-5 + OXA-232, isolate number 1, strains capable of hydrolysing cefotaxime): P | results of the test (K. pneumoniae, CTX-M + OXA-370, isolate number 1, strains capable of hydrolysing cefotaxime): P | results of the test (K. pneumoniae, CTX-M + OXA-519, isolate number 1, strains capable of hydrolysing cefotaxime): P | results of the test (K. pneumoniae, CTX-M + SHV-11 + TEM-1 + OXA-162, isolate number 1, strains capable of hydrolysing cefotaxime): P | results of the test (K. pneumoniae, CTX-M + SHV-12 + GES-5, isolate number 1, strains capable of hydrolysing cefotaxime): P | results of the test (K. pneumoniae, CTX-M-2, isolate number 1, strains capable of hydrolysing cefotaxime): P | results of the test (K. pneumoniae, CTX-M-3 + SHV-1 + TEM-1 + VIM-19, isolate number 1, strains capable of hydrolysing cefotaxime): P | results of the test (K. pneumoniae, CTX-M-3, isolate number 1, strains capable of hydrolysing cefotaxime): P | results of the test (K. pneumoniae, CTX-M-8, isolate number 1, strains capable of hydrolysing cefotaxime): P | results of the test (K. pneumoniae, CTX-M-14 + SHV-11 + TEM-1, isolate number 1, strains capable of hydrolysing cefotaxime): P | results of the test (K. pneumoniae, CTX-M-15 + SHV-1 + TEM-1 + OXA-232 + OXA-1, isolate number 1, strains capable of hydrolysing cefotaxime): P | results of the test (K. pneumoniae, CTX-M-15 + SHV-1 + TEM-1, isolate number 1, strains capable of hydrolysing cefotaxime): P | results of the test (K. pneumoniae, CTX-M-15 + SHV-1, isolate number 1, strains capable of hydrolysing cefotaxime): P | results of the test (K. pneumoniae, CTX-M-15 + SHV-11 + TEM-1 + NDM-1 + OXA-1 + OXA-181, isolate number 1, strains capable of hydrolysing cefotaxime): P | results of the test (K. pneumoniae, CTX-M-15 + SHV-11 + TEM-1 + NDM-1 + OXA-1, isolate number 1, strains capable of hydrolysing cefotaxime): P | results of the test (K. pneumoniae, CTX-M-15 + SHV-11, isolate number 1, strains capable of hydrolysing cefotaxime): P | results of the test (K. pneumoniae, CTX-M-15 + SHV-27 + TEM-1 + NDM-1 + OXA-1 + OXA-181, isolate number 1, strains capable of hydrolysing cefotaxime): P | results of the test (K. pneumoniae, CTX-M-15 + SHV-28 + TEM-1 + CMY + OXA-204, isolate number 1, strains capable of hydrolysing cefotaxime): P | results of the test (K. pneumoniae, CTX-M-15 + SHV-99 + TEM-1, isolate number 1, strains capable of hydrolysing cefotaxime): P | results of the test (K. pneumoniae, CTX-M-15 + TEM-1 + OXA-48, isolate number 1, strains capable of hydrolysing cefotaxime): P | results of the test (K. pneumoniae, CTX-M-15 + TEM, isolate number 1, strains capable of hydrolysing cefotaxime): P | results of the test (K. pneumoniae, CTX-M-15, isolate number 1, strains capable of hydrolysing cefotaxime): P | results of the test (K. pneumoniae, CTX-M-18, isolate number 1, strains capable of hydrolysing cefotaxime): P | results of the test (K. pneumoniae, CTX-M-19, isolate number 1, strains capable of hydrolysing cefotaxime): P | results of the test (K. pneumoniae, DHA-2, isolate number 1, strains capable of hydrolysing cefotaxime): P | results of the test (K. pneumoniae, GES-1, isolate number 1, strains capable of hydrolysing cefotaxime): P | results of the test (K. pneumoniae, IMP-8, isolate number 1, strains capable of hydrolysing cefotaxime): P | results of the test (K. pneumoniae, KPC + VIM, isolate number 1, strains capable of hydrolysing cefotaxime): P | results of the test (K. pneumoniae, KPC-3, isolate number 1, strains capable of hydrolysing cefotaxime): P | results of the test (K. pneumoniae, KPC-4 + NDM-7, isolate number 1, strains capable of hydrolysing cefotaxime): P | results of the test (K. pneumoniae, MCR-1 + SHV-2 + SHV-106 + mgrB truncated in orf by IS5, isolate number 1, strains capable of hydrolysing cefotaxime): P | results of the test (K. pneumoniae, NDM-1, isolate number 1, strains capable of hydrolysing cefotaxime): P | results of the test (K. pneumoniae, NDM-5 + VIM-1 + OXA-181, isolate number 1, strains capable of hydrolysing cefotaxime): P | results of the test (K. pneumoniae, OXA-48, isolate number 1, strains capable of hydrolysing cefotaxime): P | results of the test (K. pneumoniae, OXA-163, isolate number 2, strains capable of hydrolysing cefotaxime): P | results of the test (K. pneumoniae, OXA-517, isolate number 1, strains capable of hydrolysing cefotaxime): P | results of the test (K. pneumoniae, SHV-2a, isolate number 1, strains capable of hydrolysing cefotaxime): P | results of the test (K. pneumoniae, SHV-5 + IMP-1, isolate number 1, strains capable of hydrolysing cefotaxime): P | results of the test (K. pneumoniae, SHV-5 + VIM-1, isolate number 2, strains capable of hydrolysing cefotaxime): P | results of the test (K. pneumoniae, SHV-11 + OXA-48, isolate number 1, strains capable of hydrolysing cefotaxime): P | results of the test (K. pneumoniae, SHV-11 + TEM-1 + KPC-3 + OXA-9, isolate number 1, strains capable of hydrolysing cefotaxime): P | results of the test (K. pneumoniae, SHV-11, isolate number 1, strains capable of hydrolysing cefotaxime): P | results of the test (K. pneumoniae, SHV-12 + IMP-8, isolate number 1, strains capable of hydrolysing cefotaxime): P | results of the test (K. pneumoniae, SHV-36 + TEM-1, isolate number 1, strains capable of hydrolysing cefotaxime): P | results of the test (K. pneumoniae, SHV-38, isolate number 1, strains capable of hydrolysing cefotaxime): P | results of the test (K. pneumoniae, TEM-3, isolate number 1, strains capable of hydrolysing cefotaxime): P | results of the test (P. mirabilis, ACC-1, isolate number 1, strains capable of hydrolysing cefotaxime): P | results of the test (P. mirabilis, CTX-M-71, isolate number 1, strains capable of hydrolysing cefotaxime): P | results of the test (P. mirabilis, N/A, isolate number 1, strains not capable of hydrolysing cefotaxime): N | results of the test (P. mirabilis, OXA-23, isolate number 1, strains not capable of hydrolysing cefotaxime): N | results of the test (P. mirabilis, OXA-58, isolate number 1, strains not capable of hydrolysing cefotaxime): N | results of the test (P. mirabilis, TEM-52, isolate number 1, strains capable of hydrolysing cefotaxime): P | results of the test (Salmonella spp., N/A, isolate number 1, strains not capable of hydrolysing cefotaxime): N

Source: patent US20240110220A1, “DETECTING BETA-LACTAMASE ENZYME ACTIVITY” (COMMISSARIAT A L'ENERGIE ATOMIQUE ET AUX ENERGIES …, priority 2021, published 2024)
